This is an account of results in ChEMBL document CHEMBL3817822, “Design and synthesis of pyridine-pyrazole-sulfonate derivatives as potential anti-HBV agents” (Medchemcomm, 2016).

Data set [1] is described as follows: Selectivity index, ratio of TC50 for human HepG2(2.2.15) cells to IC50 for HBV infected in human HepG2(2.2.15) cells assessed as inhibition of viral DNA replication.
A short description of data set [2]: Selectivity index, ratio of TC50 for human HepG2(2.2.15) cells to IC50 for HBV infected in human HepG2(2.2.15) cells assessed as inhibition of HBeAg secretion.
The test system of data set [3] is Hepatitis B virus. The experiment in a line: Antiviral activity against HBV infected in human HepG2(2.2.15) cells assessed as inhibition of HBeAg secretion by enzyme immunoassay. In kind it is functional, organism-based.
Data set [4] is described as follows: Cytotoxicity against human HepG2(2.2.15) cells assessed as reduction in cell viability after 72 hrs by MTS assay. The conditions noted are these: for CC50 at 72 h: HepG2(2.2.15) cells, read-out: TC50; for Activity: hepg2 2.2.15, 72 h. Format: cell-based.
Data set [5] deals with Hepatitis B virus. The experiment in a line: Antiviral activity against HBV infected in human HepG2(2.2.15) cells assessed as inhibition of viral DNA replication after 48 hrs by SYBR Green based RT-PCR method. Format: functional, organism-based. The conditions noted are these: HepG2 2.2.15, 48 h.
In data set [6] the test system is Hepatitis B virus. The experiment in a line: Antiviral activity against HBV infected in human HepG2(2.2.15) cells assessed as inhibition of HBsAg secretion by enzyme immunoassay. Format: functional, organism-based.
Data set [7] is described as follows: Selectivity index, ratio of TC50 for human HepG2(2.2.15) cells to IC50 for HBV infected in human HepG2(2.2.15) cells assessed as inhibition of HBsAg secretion.

The term IC50 denotes the concentration needed to halve the response being measured.

`O=c1cc(CSc2ccccn2)[nH][nH]1`: the “Selectivity Index” value in data set [1] is recorded as 2.13; in data set [2], 1.89; in data set [7] it was 1.37. Besides, the values for the IC50 in data set [3], in data set [5] and in data set [6] were 590 µM, 524 µM and 815 µM, respectively. In data set [4], the CC50 at 72 h is 1120 µM. Further, the Activity result in data set [4] is given as “Dose-dependent effect”.

With `Nc1ccn([C@H]2CS[C@@H](CO)O2)c(=O)n1`, the CC50 at 72 h in data set [4] turned out to be 352 µM. The IC50 in data set [5] was 2.09 µM.

Turning to `O=[N+]([O-])c1ccc(S(=O)(=O)Oc2cc(CSc3ccccn3)[nH]n2)cc1`, the “Selectivity Index” value in data set [1] was found to be 6.88; in data set [2], 6.41; in data set [7] it was 7.97. Moreover, the IC50 in data set [3] is 5.97 µM; in data set [5], 5.56 µM; in data set [6], 4.8 µM. The CC50 at 72 h in data set [4] came out at 38.2 µM. Moreover, the Activity entry in data set [4] is “Dose-dependent effect”.

As for `O=S(=O)(Oc1cc(CSc2ccccn2)[nH]n1)c1ccc(Br)cc1`, the “Selectivity Index” value in data set [1] is reported as 8.63; in data set [2], 5.69; in data set [7], 0.46. Also, the IC50 in data set [3] was found to be 9.2 µM; in data set [5], 6.07 µM; in data set [6], 115 µM. Besides, the CC50 at 72 h in data set [4] was 52.4 µM. Moreover, in data set [4], the Activity entry is on record as “Dose-dependent effect”.

On to `O=[N+]([O-])c1ccccc1S(=O)(=O)Oc1cc(CSc2ccccn2)[nH]n1`, for which the “Selectivity Index” value in data set [1] worked out at 10.51; in data set [2], 6.68; in data set [7] it was 10.6. In addition, the IC50 came to 9.92 µM in data set [3], 6.3 µM in data set [5] and 6.25 µM in data set [6]. The CC50 at 72 h in data set [4] turned out to be 66.2 µM. Moreover, in data set [4], the Activity result is on record as “Dose-dependent effect”.

Turning to `Cc1ccc(S(=O)(=O)Oc2cc(-c3ccccn3)[nH]n2)cc1`, the “Selectivity Index” value in data set [1] is given as 6.92; in data set [2], 6.71; in data set [7] it was 9.35. Also, the results for the IC50 in data set [3], in data set [5] and in data set [6] were 32.3 µM, 31.3 µM and 23.2 µM, respectively. Also, the CC50 at 72 h in data set [4] was determined as 217 µM. Further, the Activity result in data set [4] is given as “Dose-dependent effect”.

For `CS(=O)(=O)Oc1cc(-c2ccccn2)[nH]n1`, in data set [4], the CC50 at 72 h is 1060 µM and the Activity entry was “Dose-dependent effect”. For the same compound, in data set [6], the IC50 was 287 µM. For the same compound, in data set [7], the “Selectivity Index” value turned out to be 3.68.

On to `O=[N+]([O-])c1ccccc1S(=O)(=O)Oc1cc(-c2ccccn2)[nH]n1`, for which the “Selectivity Index” value in data set [1] is given as 35.46; in data set [2], 27.11; in data set [7] it was 43.54. Besides, the IC50 was determined as 12 µM in data set [3], 9.19 µM in data set [5] and 7.48 µM in data set [6]. Also, the CC50 at 72 h in data set [4] was found to be 326 µM. Moreover, in data set [4], the Activity result was “Dose-dependent effect”.

On to `COc1ccc(S(=O)(=O)Oc2cc(CSc3ccccn3)[nH]n2)cc1`, for which the “Selectivity Index” value turned out to be 2.37 in data set [1], 2.02 in data set [2] and 6.21 in data set [7]. For the same compound, the results for the IC50 in data set [3], in data set [5] and in data set [6] were 44.6 µM, 38.1 µM and 14.5 µM, respectively. Besides, the CC50 at 72 h in data set [4] stood at 90.2 µM. For the same compound, the Activity result in data set [4] is given as “Dose-dependent effect”.

As for `O=S(=O)(Oc1cc(CSc2ccccn2)[nH]n1)c1ccccc1`, the “Selectivity Index” value in data set [1] is given as 5.46; in data set [2] it was 5.09; in data set [7] it was 0.68. Moreover, the 50% inhibitory concentration (IC50) in data set [3] came out at 20.3 µM; in data set [5], 18.9 µM; in data set [6], 152 µM. Moreover, the CC50 at 72 h in data set [4] amounted to 103 µM. The Activity result in data set [4] was “Dose-dependent effect”.

In the case of `O=S(=O)(Oc1cc(-c2ccccn2)[nH]n1)c1ccccc1`, the “Selectivity Index” value stood at 2.07 in data set [1], 1.94 in data set [2] and 0.99 in data set [7]. Also, the values for the concentration for half-maximal inhibition (IC50) in data set [3], in data set [5] and in data set [6] were 69.5 µM, 65.3 µM and 137 µM, respectively. In data set [4], the CC50 at 72 h turned out to be 135 µM. Also, the Activity entry in data set [4] was “Dose-dependent effect”.

As to `O=c1cc(-c2ccccn2)[nH][nH]1`, the figures for the “Selectivity Index” value in data set [1], in data set [2] and in data set [7] were 0.79, 0.78 and 0.77, respectively. Besides, the IC50 in data set [3] amounted to 1370 µM; in data set [5], 1350 µM; in data set [6], 1380 µM. In addition, the CC50 at 72 h in data set [4] came out at 1060 µM. For the same compound, the Activity entry in data set [4] was “Dose-dependent effect”.

Consider `O=[N+]([O-])c1ccc(S(=O)(=O)Oc2cc(-c3ccccn3)[nH]n2)cc1`, for which, in data set [4], the CC50 at 72 h was found to be 787 µM and the Activity result was “Dose-dependent effect”. In addition, in data set [6], the IC50 was determined as 125 µM. Also, in data set [7], the “Selectivity Index” value is on record as 6.28.

As to `CS(=O)(=O)Oc1cc(CSc2ccccn2)[nH]n1`, the “Selectivity Index” value in data set [1] was 1.12; in data set [2], 1.22; in data set [7], 5.17. Besides, the IC50 in data set [3] worked out at 679 µM; in data set [5] it was 739 µM; in data set [6], 161 µM. For the same compound, the CC50 at 72 h in data set [4] is 830 µM. In addition, the Activity result in data set [4] is on record as “Dose-dependent effect”.

As for `O=S(=O)(Oc1cc(-c2ccccn2)[nH]n1)c1ccc(F)cc1`, the “Selectivity Index” value in data set [1] is on record as 2.76; in data set [2], 3.06; in data set [7] it was 5.53. For the same compound, the values for the IC50 in data set [3], in data set [5] and in data set [6] were 82.9 µM, 92.1 µM and 45.9 µM, respectively. Moreover, the CC50 at 72 h in data set [4] is 254 µM. Besides, the Activity entry in data set [4] is recorded as “Dose-dependent effect”.

For the compound `O=S(=O)(Oc1cc(-c2ccccn2)[nH]n1)c1ccc(Br)cc1`, in data set [4], the CC50 at 72 h was determined as 809 µM and the Activity result is reported as “Dose-dependent effect”. For the same compound, the IC50 in data set [6] is 210 µM. The “Selectivity Index” value in data set [7] turned out to be 3.85.

In the case of `Cc1ccc(S(=O)(=O)Oc2cc(CSc3ccccn3)[nH]n2)cc1`, the “Selectivity Index” value in data set [1] came out at 6.04; in data set [2], 4.45; in data set [7], 4.36. Moreover, the IC50 in data set [3] turned out to be 19.4 µM; in data set [5] it was 14.3 µM; in data set [6], 19.8 µM. For the same compound, the CC50 at 72 h in data set [4] came out at 86.4 µM. In data set [4], the Activity entry was “Dose-dependent effect”.

With `O=S(=O)(Oc1cc(CSc2ccccn2)[nH]n1)c1ccc(F)cc1`, the “Selectivity Index” value in data set [1] came out at 0.59; in data set [2] it was 0.46; in data set [7] it was 4.44. The IC50 in data set [3] was determined as 250 µM; in data set [5], 197 µM; in data set [6], 26.2 µM. Besides, the CC50 at 72 h in data set [4] was found to be 116 µM. Also, the Activity result in data set [4] is listed as “Dose-dependent effect”.

As to `COc1ccc(S(=O)(=O)Oc2cc(-c3ccccn3)[nH]n2)cc1`, the “Selectivity Index” value in data set [1] was determined as 3.95; in data set [2], 3.79; in data set [7], 5.69. The IC50 in data set [3] came to 23.1 µM; in data set [5], 22.2 µM; in data set [6] it was 15.4 µM. Further, the CC50 at 72 h in data set [4] stood at 87.5 µM. For the same compound, the Activity entry in data set [4] is listed as “Dose-dependent effect”.
